Measurements from patent US6852741B2, “Compositions and methods for treatment of neurological disorders” (University of Florida, priority 2001, dated 2005).

Tests used:
[1] = biological target: T1, α3β4 nicotinic acetylcholine receptor (Rattus norvegicus, UniProt P04757+P12392); assay: Two-electrode voltage clamp of Xenopus oocytes expressing wild-type α3β4 receptors; type: cell-based; conditions: for Protection from residual inhibition produced by 100 μM DMXB: pre-treatment and co-application, 100 μM ACh control after 5 minute wash
T1 construct: expressed in transfected cells; host or cells: Xenopus laevis oocytes injected with subunit cRNAs
Description: (§1) Preparation of RNA. After linearization and purification of cloned cDNAs, RNA transcripts were prepared in vitro using the appropriate mMessage mMachine kit from AMBION Inc. (Austin, Tex.).
(§2) Expression in Xenopus oocytes. Mature (>9 cm) female Xenopus laevis African toads (NASCO, Ft. Atkinson, Wis.) were used as a source of oocytes. Prior to surgery, frogs were anesthetized by placing the animal in a 1.5 g/L solution of MS222 (3-aminobenzoic acid ethyl ester). Eggs were removed from an incision made in the abdomen. […] Subsequently, stage 5 oocytes were isolated and injected with 50 nl (5-20 ng) each of a mixture of the appropriate subunit cRNAs following harvest. Recordings were made 1 to 7 days after injection depending on the cRNAs being tested.
(§3) Electrophysiology. […] Data were acquired using Labview software (NATIONAL INSTRUMENTS) or pClamp8 (AXON INSTRUMENTS) and filtered at a rate of 6 Hz. […] A Mariotte flask filled with Ringer's solution was used to maintain a constant hydrostatic pressure for drug deliveries and washes. Drugs were diluted in perfusion solution and loaded into a 2 ml loop at the terminus of the perfusion line. A bypass of the drug-loading loop allowed bath solution to flow continuously while the drug loop was loaded, and then drug application was synchronized with data acquisition by using a 2-way electronic valve. The rate of bath solution exchange and all drug applications was 6 ml/min. Current electrodes were filled with a solution containing 250 mM CsCl, 250 mM CsF and 100 mM EGTA and had resistances of 0.5-2 MΩ. Voltage electrodes were filled with 3 M KCl and had resistances of 1-3 MΩ.
(§4) Experimental protocols and data analysis. Current responses to drug application were studied under two-electrode voltage clamp at a holding potential of −50 mV unless otherwise noted. Holding currents immediately prior to agonist application were subtracted from measurements of the peak response to agonist.
(§5) The ratio of C2/C1 is referred to as the recovery response (FIGS. 2B, 3B and 3D). Measurements of C2/C1 that were <0.75 were taken to indicate that the experimental drug application produced some form of residual inhibition. An oocyte was not used for further experimental drug applications when the measurements of C2/C 1 became less than 0.75.
(§6) Means and standard errors (SEM) were calculated from the normalized responses of at least four oocytes for each experimental concentration. For concentration-response relations (FIGS. 2 & 3), data were plotted using Kaleidagraph 3.0.2 (ABELBECK SOFTWARE; Reading, Pa.), and curves were generated from the Hill equation. [formula]
(§7) In Formula I, Imax denotes the maximal response for a particular agonist/subunit combination, and n represents the Hill coefficient. Imax, n, and the EC50 were all unconstrained for the fitting procedures.
The values for the C2/C1 ratios were plotted as functions of the experimental agonist concentrations applied between the C2 and C1 control responses. The data were then fit to the Hill equation with n constrained to equal −1 for the calculation of IC50 values. Determination of significant differences between experimental and control groups (FIGS. 4A-4B and 5A-5D) was made by t-test (unpaired two-tailed).

[2] = biological target: T2, α3β4(6′F10′T) nicotinic acetylcholine receptor (Rattus norvegicus, UniProt P04757+P12392, A272T/S268F); assay: Two-electrode voltage clamp of Xenopus oocytes expressing mutant α3β4(6′F10′T) receptors; type: cell-based; conditions: for Residual inhibition of mutant compared with wild-type receptor: after 5 minute wash; for Effect of hyperpolarized holding potential on residual inhibition: −100 mV versus −50 mV
T2 construct: expressed in transfected cells; host or cells: Xenopus laevis oocytes injected with subunit cRNAs; mutant made by QuikChange site-directed mutagenesis
Description: cDNA clones. […] The sequences of the TM2 domains of the relevant subunits are shown below.
Construction of site-directed mutants. Site-directed mutagenesis was conducted with […] kits ([…], LaJolla, Calif.). In brief, two complimentary oligonucleotides were synthesized which contain the desired mutation flanked by 10-15 bases of unmodified nucleotide sequence. Using a thermal cycler, Pfu DNA polymerase extended the sequence around the whole vector, generating a plasmid with staggered nicks. […] After 12-16 cycles, the product was treated with Dpn I, which digested the methylated parent DNA into numerous small pieces. The product was then transformed into E. coli cells, which repaired the nicks. Mutations were confirmed by DNA sequencing.
as §1, §2, §3, §4, §5, §6, §7
The values for the C2/C1 ratios were plotted as functions of the experimental agonist concentrations applied between the C2 and C1 control responses. The data were then fit to the Hill equation with n constrained to equal −1 for the calculation of IC50 values.

[3] = Hill fit of peak currents, holding potential −50 mV

T1 sequence (P04757 26-499): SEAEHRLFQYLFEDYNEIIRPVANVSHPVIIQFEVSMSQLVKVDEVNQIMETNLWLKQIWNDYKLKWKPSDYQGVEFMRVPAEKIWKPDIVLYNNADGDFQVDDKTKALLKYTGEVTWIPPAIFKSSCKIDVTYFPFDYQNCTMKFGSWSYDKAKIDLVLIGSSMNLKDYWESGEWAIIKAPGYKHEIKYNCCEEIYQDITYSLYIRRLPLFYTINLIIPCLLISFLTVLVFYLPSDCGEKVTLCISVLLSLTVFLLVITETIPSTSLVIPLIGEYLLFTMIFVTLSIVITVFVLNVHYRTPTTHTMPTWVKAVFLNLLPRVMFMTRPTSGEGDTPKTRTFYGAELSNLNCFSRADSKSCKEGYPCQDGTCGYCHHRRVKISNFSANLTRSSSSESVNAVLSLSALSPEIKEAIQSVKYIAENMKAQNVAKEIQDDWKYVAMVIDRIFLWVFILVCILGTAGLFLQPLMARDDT
T1 sequence (P12392 21-495): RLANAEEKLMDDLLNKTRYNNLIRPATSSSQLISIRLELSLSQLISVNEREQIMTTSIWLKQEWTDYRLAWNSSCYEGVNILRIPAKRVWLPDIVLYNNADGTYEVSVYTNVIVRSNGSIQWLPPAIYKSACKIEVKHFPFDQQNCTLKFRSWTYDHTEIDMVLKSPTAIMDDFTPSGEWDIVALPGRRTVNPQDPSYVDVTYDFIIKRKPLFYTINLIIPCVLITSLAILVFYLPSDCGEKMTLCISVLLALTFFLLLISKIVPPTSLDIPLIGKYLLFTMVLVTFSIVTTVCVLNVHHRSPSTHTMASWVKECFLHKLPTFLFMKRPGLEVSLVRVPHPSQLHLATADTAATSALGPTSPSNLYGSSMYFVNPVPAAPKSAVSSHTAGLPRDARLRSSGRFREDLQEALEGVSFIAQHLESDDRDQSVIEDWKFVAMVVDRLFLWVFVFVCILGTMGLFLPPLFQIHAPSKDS
T2 sequence (P04757 26-499): as the sequence (P04757 26-499) above
T2 sequence (P12392 21-495 S268F/A272T): as the sequence (P12392 21-495) above, with S248F, A252T counted along it

## CNCC/C=C/c1cccnc1 [TC-2403, (E)-N-methyl-4-(3-pyridinyl)-3-butene-1-amine]
[1]; Hill fit of peak currents
  n (Hill coefficient): 2.1 ± 0.2
[1]; [3]
  Max response (relative to ACh Maximum): 0.09 ± 0.01
[1]; activation of peak currents
  EC50: 347 ± 12 µM
[1]
  Protection from residual inhibition produced by 100 μM DMXB: significant (p<0.05) reduction in the residual inhibition
[2]; Hill fit of peak currents
  n (Hill coefficient): 2.1 ± 0.2
[2]; [3]
  Max response (relative to ACh Maximum): 0.38 ± 0.01
[2]; activation of peak currents
  EC50: 111 ± 5 µM
[2]; after 1 mM TC-2403, 5 minute wash
  Control ACh response after application, relative to pre-application control values: 70±6%
[2]
  Residual inhibition of mutant compared with wild-type receptor: no significant increase in residual inhibition at concentrations less than 1 mM
[2]; pre-treatment and co-application, p<0.01 for TC-2403
  Protection from residual inhibition produced by 100 μM DMXB: significant protection
[2]; pre-treatment and co-application, p<0.05 for TC-2403
  Protection from residual inhibition produced by 300 μM nicotine: significant protection

## COc1ccc(/C=C2\CCCN=C2c2cccnc2)c(OC)c1 [DMXB, 3-[2,4-dimethoxybenzylidene]-anabaseine]
[1]
  IC50: 121 ± 48 µM
[1]; 100 μM DMXB co-applied with 100 μM ACh
  Activation on co-application with 100 μM ACh, relative to ACh alone: 4±0.2%
[1]; DMXB co-applied with 100 μM ACh
  Effect of ACh co-application on DMXB-induced inhibition: not enhanced
[1]; −100 mV versus −50 mV
  Effect of hyperpolarized holding potential on residual inhibition: enhanced
[2]
  IC50: 23 ± 17 µM
  Residual inhibition of mutant compared with wild-type receptor: more inhibition after it was applied at 100 or 300 μM
  Effect of hyperpolarized holding potential on residual inhibition: enhanced
[2]; 30 μM DMXB co-applied with 100 μM ACh
  Response to 100 μM ACh when co-applied with DMXB: 13±2%
[2]; 30 μM DMXB co-applied with ACh
  Effect of ACh co-application on DMXB-induced residual inhibition: large increase in the residual inhibition

## CC[N+](CC)(CC)CC(=O)Nc1c(C)cccc1C [QX-314, 2-(triethylamino)-N-(2,6-dimethylphenyl)-acetamide]
[1]
  Protection from residual inhibition produced by 100 μM DMXB: neither of these agents provided any protection

## CCCCNc1ccc(C(=O)OCCN(C)C)cc1 [tetracaine]
[1]
  Protection from residual inhibition produced by 100 μM DMXB: neither of these agents provided any protection

## CN1CCCC1c1cccnc1 (single isomer, unassigned; (-)) [Nicotine, (−)-Nicotine]
[1]; Hill fit of peak currents
  n (Hill coefficient): 1.2 ± 0.2
[2]; Hill fit of peak currents
  n (Hill coefficient): 0.8 ± 0.3
[2]; repeated applications, data not shown
  Persistence of residual inhibition: up to an hour
[2]
  Effect of hyperpolarized holding potential on residual inhibition: enhanced
